Results as given in patent US20160256449A1, “H3 RECEPTOR ANTAGONIST FOR USE IN THE TREATMENT OF ALZHEIMER'S DISEASE” (SANOFI, priority 2013, published 2016).

Key:
[1] = tested on: patients with mild to moderate Alzheimer's disease; assay: clinical study, ADAS-Cog 11 items; type: in vivo, human; conditions: mITT
From the text: “ADAS-Cog” as used herein, refers to a sensitive and standardized neuropsychological test battery to assess cognitive dysfunction characteristics of patients with AD including memory and orientation, language (aphasia), motor skills (praxis), attention and concentration. The original, standard version consists of 11 items. The total score of these 11-item scores ranges from 0-70 with higher scores indicating greater cognitive impairment. More recently, two additional tasks have been added in a new 13-item version of the scale proposed for patients with mild disease: Delayed Word Recall and Concentration/Distractibility.
A randomized, double-blind, parallel-group, placebo-controlled clinical trial was performed to study the effect on cognitive performance, safety, and tolerability of 2-(cyclohexylmethyl)-N-{2-[(2S)-1-methylpyrrolidin-2-yl]ethyl}-1,2,3,4-tetrahydroisoquinoline-7-sulfonamide difumarate monohydrate as adjunct treatment to donepezil. […]
Patients were randomized to receive 0.5 mg, 2 mg, or 5 mg of 2-(cyclohexylmethyl)-N-{2-[(2S)-1-methylpyrrolidin-2-yl]ethyl}-1,2,3,4-tetrahydroisoquinoline-7-sulfonamide difumarate monohydrate (measured in base form), or matching placebo once a day, with donepezil (5 mg or 10 mg in the form the patient took prior to enrollment), for 24 weeks, with or without food. […]

[2] = tested on: patients with mild to moderate Alzheimer's disease; assay: clinical study, responder analysis on combined criterion (ADAS-Cog, ADCS-ADL, CGIC); type: in vivo, human; conditions: week 24
From the text: FIG. 7 illustrates the rate of “responders” at week 24 for the four dose group according to a combined criterion on the ADAS-Cog (2 points improvement vs baseline), ADCS-ADL (no worsening) and CGIC (no worsening) during the clinical study described in Example 2, in the mITT population.
“CGIC” as used herein, refers to the Clinical Global impression of Change assessed (at week 12 and week 24 during the clinical study described in Example 2) by the investigator according to 3 modalities: “Improvement” (includes marked, moderate and minimal improvement), “No change” and “Worsening” (includes minimal, moderate and marked worsening).
FIG. 7 illustrates the responder analysis at week 24 based on a combined criterion defined as followed: […]
change from baseline to Week 24 lower than or equal to −2 points in the ADAS-Cog total score, and
change from baseline to Week 24 greater than or equal to 0 point in the ADCS-ADL global score, and
no worsening according to the CGIC assessment at Week 24.

**Q.** How did the “ADAS-Cog score compared to placebo” value ([1]; 5 mg/day with donepezil, at follow-up) turn out when CN1CCC[C@H]1CCNS(=O)(=O)c1ccc2c(c1)CN(CC1CCCCC1)CC2 [API, 2-(cyclohexylmethyl)-N-{2-[(2S)-1-methylpyrrolidin-2-yl]ethyl}-1,2,3,4-tetrahydroisoquinoline-7-sulfonamide difumarate monohydrate] was run?
**A.** Its value is “statistically significant improvement”.

**Q.** What about the “mean differences in the ADAS-Cog change score” value ([1]; after 24 weeks of treatment, with donepezil) of the same compound?
**A.** Its value is “not significantly different”.

**Q.** What about the “rate of responder on a combined criterion (ADAS-Cog, ADCS-ADL, CGIC)” value ([2]; 5 mg group with donepezil) of the same compound?
**A.** Its value is 16.7%.

**Q.** And the “rate of responders over placebo” value ([2]; 5 mg/day with donepezil)?
**A.** The value was “higher rate”.
